The target in this experiment is Human immunodeficiency virus type 1 integrase (Human immunodeficiency virus 1, UniProt Q7ZJM1). Put plainly: Inhibition of HIV1 integrase 3' processing activity.
Chain of Human immunodeficiency virus type 1 integrase (Q7ZJM1 whole entry): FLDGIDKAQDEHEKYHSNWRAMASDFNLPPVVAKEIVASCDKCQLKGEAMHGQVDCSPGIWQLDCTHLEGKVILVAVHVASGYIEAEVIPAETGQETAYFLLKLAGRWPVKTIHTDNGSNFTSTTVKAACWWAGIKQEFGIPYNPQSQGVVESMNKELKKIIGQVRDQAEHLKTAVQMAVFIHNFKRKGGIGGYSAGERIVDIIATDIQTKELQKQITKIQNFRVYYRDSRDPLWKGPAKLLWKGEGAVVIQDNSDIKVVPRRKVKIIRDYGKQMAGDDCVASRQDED
As to `O=C(O)c1ccc2ccc(/C=C/c3ccc(O)c(O)c3O)nc2c1O`, the IC50 is 0.302 µM. Next, `Cc1cc(/C=C/c2ccc3ccc(C(=O)O)c(O)c3n2)ccc1O`: 2.82 µM. `CC(=O)Oc1cccc2ccc(/C=C/c3ccccc3)nc12` showed an IC50 of 100 µM. This IC50 lies about 35-fold higher than the previous one. With `COC(=O)c1ccc2ccc(/C=C/c3ccc(O)c(O)c3)nc2c1O`, the half-maximal inhibitory concentration (IC50) is 100 µM. As for `Oc1ccc(/C=C/c2ccc3c(Cl)cc(Cl)c(O)c3n2)cc1O`, half-maximal inhibition (IC50) required 100 µM. Molecule `Cc1ccc2ccc(C(=O)O)c(O)c2n1` gave an IC50 of 100 µM. The molecule `Cc1ccc2cccc(OC(=O)/C=C/c3ccc(O)c(O)c3)c2n1` showed an IC50 of 100 µM. `COc1ccc(/C=C/C(=O)Oc2cccc3ccc(C)nc23)cc1OC` had an IC50 of 100 µM. Next, `Nc1cccc2ccc(/C=C/c3ccc(O)c(O)c3)nc12`: 100 µM; `CC(=O)Oc1ccc(/C=C/c2ccc3cccc(OC(C)=O)c3n2)cc1OC(C)=O`: 100 µM. `Oc1cccc2ccc(/C=C/c3ccccc3)nc12` showed a concentration for half-maximal inhibition (IC50) of 100 µM. Next, `O=[N+]([O-])c1cccc2ccc(/C=C/c3ccc(O)c(O)c3)nc12`: 100 µM; `Oc1cccc2ccc(/C=C/c3ccc4cccc(O)c4n3)nc12`: 100 µM. As to `Oc1ccc(/C=C/c2ccc3ccccc3n2)cc1O`, the IC50 was 100 µM. Consider `Cc1ccc2cccc(O)c2n1` [8-HYDROXY QUINALDINE], for which the IC50 was 100 µM.
